We go through seven molecules from patent US7132252B2, “Methods for detecting the interaction of compounds with cytochrome P450 using optical molecular sensors” (Invitrogen Corporation, priority 1998, dated 2006).

One series addresses T1, CYP 1A2 (Homo sapiens, UniProt P05177).
T1 sequence (P05177 1-516): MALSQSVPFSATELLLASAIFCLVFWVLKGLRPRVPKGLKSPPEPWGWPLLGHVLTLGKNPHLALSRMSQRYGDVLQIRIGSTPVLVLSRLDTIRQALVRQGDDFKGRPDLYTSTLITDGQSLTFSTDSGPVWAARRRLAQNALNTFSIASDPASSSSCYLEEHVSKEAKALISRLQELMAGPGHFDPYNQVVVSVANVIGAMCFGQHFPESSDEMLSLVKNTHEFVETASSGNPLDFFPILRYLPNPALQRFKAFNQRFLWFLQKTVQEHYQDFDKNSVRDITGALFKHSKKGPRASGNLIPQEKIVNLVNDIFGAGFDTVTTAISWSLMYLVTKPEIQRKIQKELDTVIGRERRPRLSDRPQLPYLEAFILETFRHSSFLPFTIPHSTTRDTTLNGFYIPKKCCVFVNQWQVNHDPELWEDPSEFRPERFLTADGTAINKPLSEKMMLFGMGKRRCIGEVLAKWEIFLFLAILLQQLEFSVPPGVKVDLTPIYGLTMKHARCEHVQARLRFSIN
The series can be described thus: Kinetic properties of fluorogenic substrates with CYP 1A2. It counts as biochemical.

The target in the next series is CYP2C19 (Homo sapiens, UniProt P33261). In words: Kinetic properties of fluorogenic substrates with CYP 2C19. It counts as biochemical.
For series [1], the target named is T2, CYP3A4 (Homo sapiens, UniProt P08684).
The target in series [2] is T2, CYP3A4. In words: Kinetic properties of fluorescein-based fluorogenic substrates with CYP 3A4. It counts as biochemical. As to conditions: for K1/2max: concentration at 1/2 maximal velocity for sigmoidal kinetics; for vmax: for sigmoidal kinetics; for v (1.25 uM): turnover rate at 1.25 uM substrate; for v (1.25 uM) / v (10 uM): 100 mM K+ phosphate, pH 8.0; for v (10 uM): turnover rate at 10 uM substrate. As to the method: (§1) Dibenzylfluorescein (DBF) was purchased form Gentest, Woburn, Mass. […] DBF, BOMF and DBOMF were diluted from a stock solution of 2 mM in acetonitrile to a 4×concentration of 80 μM in 100 mM K+ phosphate buffer. Seven 1:2 dilutions were made of each substrate of which 25 μl was added to the appropriate wells. […] The cytochrome P450 isozyme CYP3A4 was diluted to give a 0.5 pmol enzyme per well and added in a volume of 10 μl/well in K+ phosphate, pH 8.0. Enzymatic conversion of the substrate to products was allowed to proceed for 1 hour with fluorescence reads taken every four minutes on a fluorescence microtiter plate reader. The solution was illuminated using an 485/20 nm excitation filter and fluorescence emission was detected through a 530/25 nm the emission filter.

A further series concerns the target T3, CYP 2C8 (Homo sapiens, UniProt P10632).
T3 sequence (P10632 1-490): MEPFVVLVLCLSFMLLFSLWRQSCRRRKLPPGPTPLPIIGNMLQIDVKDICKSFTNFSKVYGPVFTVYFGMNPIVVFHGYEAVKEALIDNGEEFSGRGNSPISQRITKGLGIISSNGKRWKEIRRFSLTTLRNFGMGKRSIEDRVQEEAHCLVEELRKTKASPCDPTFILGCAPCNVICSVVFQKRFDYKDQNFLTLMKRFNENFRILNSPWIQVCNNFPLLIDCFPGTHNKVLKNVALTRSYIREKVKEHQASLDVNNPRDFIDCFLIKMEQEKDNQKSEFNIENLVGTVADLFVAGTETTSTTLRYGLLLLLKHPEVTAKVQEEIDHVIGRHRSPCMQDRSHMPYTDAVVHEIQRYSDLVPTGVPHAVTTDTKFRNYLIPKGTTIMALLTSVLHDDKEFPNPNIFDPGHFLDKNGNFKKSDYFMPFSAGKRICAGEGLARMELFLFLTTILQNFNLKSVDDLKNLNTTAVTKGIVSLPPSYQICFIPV
In words: Kinetic properties of fluorescein-based fluorogenic substrates with CYP 2C8. It counts as biochemical. As to conditions: for v (1.25 uM): turnover rate at 1.25 uM substrate; for v (1.25 uM) / v (10 uM): 100 mM K+ phosphate buffer, pH 7.5; for v (10 uM): turnover rate at 10 uM substrate. Here is the method: as §1
In deviation from the protocol described in Example 32, the phosphate-based buffer (100 mM K+ phosphate, pH 8.0) was replaced throughout the procedure by 100 mM K+ phosphate buffer, pH 7.5. […] Specifically, the substrate dibenzylfluorescein (DBF) (purchased form Gentest, Woburn, Mass.) and the sensor of the present invention DBOMF were tested for activity with CYP 2C8.

Series [3] deals with T2, CYP3A4. The series can be described thus: in vitro. As to conditions: pH 8, % inhibition, 10 μM drug; for inhibition at 20 min, 10 µM: Condition A, 20 min pre-incubation without NADP+ (no enzyme turnover), relative to 10 μM clotrimazole control; for inhibition at 40 min, 10 µM: Condition B, 40 min pre-incubation with NADP+ (enzyme turnover), relative to 10 μM ellipticine control.

Substrate in series [4]: CCOc1ccc2cc(C#N)c(=O)oc2c1
In words: Kinetic properties of fluorogenic substrates with CYP 1A2. It counts as biochemical, human.

Substrate in series [5]: CCOCOc1ccc2cc(C#N)c(=O)oc2c1
Described as above. The format is biochemical, human.

Like-named read-outs stand apart in the source and are kept apart here.

CYP2C19, sequence (P33261 whole entry): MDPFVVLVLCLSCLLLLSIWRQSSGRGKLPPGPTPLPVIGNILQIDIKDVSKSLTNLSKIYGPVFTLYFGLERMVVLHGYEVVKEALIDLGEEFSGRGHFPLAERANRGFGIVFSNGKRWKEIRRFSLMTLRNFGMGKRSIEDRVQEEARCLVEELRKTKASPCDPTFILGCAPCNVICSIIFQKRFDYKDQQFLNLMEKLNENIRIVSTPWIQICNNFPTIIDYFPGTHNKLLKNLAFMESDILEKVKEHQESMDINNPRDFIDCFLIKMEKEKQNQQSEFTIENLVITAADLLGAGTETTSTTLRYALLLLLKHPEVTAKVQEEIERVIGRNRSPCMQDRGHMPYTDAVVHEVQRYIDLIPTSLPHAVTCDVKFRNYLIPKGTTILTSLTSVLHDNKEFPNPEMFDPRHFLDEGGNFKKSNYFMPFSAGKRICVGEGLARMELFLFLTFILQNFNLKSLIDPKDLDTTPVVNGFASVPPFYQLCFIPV
T2 sequence (P08684 whole entry): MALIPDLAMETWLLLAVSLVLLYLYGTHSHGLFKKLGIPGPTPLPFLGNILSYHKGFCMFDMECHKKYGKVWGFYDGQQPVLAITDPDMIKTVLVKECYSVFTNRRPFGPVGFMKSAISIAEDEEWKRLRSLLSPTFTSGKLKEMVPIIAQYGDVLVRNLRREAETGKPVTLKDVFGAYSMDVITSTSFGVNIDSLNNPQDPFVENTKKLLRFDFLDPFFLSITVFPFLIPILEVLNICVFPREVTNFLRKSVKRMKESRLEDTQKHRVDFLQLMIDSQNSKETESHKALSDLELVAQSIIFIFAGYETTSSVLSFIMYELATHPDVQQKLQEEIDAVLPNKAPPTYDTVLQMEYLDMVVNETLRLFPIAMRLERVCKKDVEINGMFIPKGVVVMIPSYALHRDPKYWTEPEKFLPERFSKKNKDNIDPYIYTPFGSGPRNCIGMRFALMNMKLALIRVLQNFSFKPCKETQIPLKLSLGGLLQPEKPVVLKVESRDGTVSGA

Turning to `CCOc1ccc2cc(C#N)c(=O)oc2c1` [3CEC, 3-Cyano-7-ethoxycoumarin, reference compound], the type of kinetics result at CYP 1A2 and on CYP2C19 was “Michaelis-Menten” in each case. In addition, the “v (1.25 uM)” value on CYP 1A2 (turnover rate at 1.25 uM substrate) turned out to be 1.73 min⁻¹; at CYP2C19 (turnover rate at 1.25 uM substrate, — = too low to quantify) it was 0.05 min⁻¹. Besides, the “v (10 uM)” value at CYP 1A2 (turnover rate at 10 uM substrate) amounted to 12.55 min⁻¹; on CYP2C19 (turnover rate at 10 uM substrate, — = too low to quantify), 0.34 min⁻¹.

`CCCCc1oc2ccccc2c1C(=O)c1cc(I)c(OCCN(CC)CC)c(I)c1` [Amiodarone]: the “metabolism-dependent inhibitory activity against the CYP3A4 isozyme” value (“metabolism-dependent inhibitory activity” for short) on CYP3A4 [1] is “at least partial metabolism-dependent inhibitory activity”.

For `O=C(OCc1ccccc1)c1ccccc1-c1c2ccc(=O)cc-2oc2cc(OCc3ccccc3)ccc12` [DBF, Dibenzylfluorescein, reference compound], on CYP3A4 [2], the type of kinetics result is given as “sigmoidal”, the K1/2max was found to be 0.80 µM, the vmax stood at 4.30 min⁻¹ and the “v (1.25 uM)” value was found to be 3.27 min⁻¹. On CYP3A4 [2], the “v (10 uM)” value worked out at 4.40 min⁻¹. Also, at CYP 2C8, the type of kinetics result is recorded as “MichaelisMenten”, the “v (1.25 uM)” value amounted to 0.16 min⁻¹ and the “v (10 uM)” value was found to be 0.37 min⁻¹.

`O=C(OCOCc1ccccc1)c1ccccc1-c1c2ccc(=O)cc-2oc2cc(OCOCc3ccccc3)ccc12` [DBOMF, Dibenzyloxymethylfluorescein]: at CYP3A4 [2], the type of kinetics entry is on record as “sigmoidal”, the K1/2max came out at 1.50 µM, the vmax was 16.00 min⁻¹ and the “v (1.25 uM)” value is 6.00 min⁻¹. Moreover, the “v (10 uM)” value at CYP3A4 [2] turned out to be 15.50 min⁻¹. For the same molecule, at CYP 2C8, the type of kinetics entry is “MichaelisMenten”, the “v (1.25 uM)” value worked out at 0.55 min⁻¹ and the “v (10 uM)” value stood at 1.54 min⁻¹.

In the case of `Cc1c2ccncc2c(C)c2c1[nH]c1ccccc12` [Ellipticine], the inhibition at 20 min, 10 µM at CYP3A4 [3] (substrate BOMCC) was found to be 92%; at CYP3A4 [3] (substrate BOMR) it was 97%; against CYP3A4 [3] (substrate DBOMF), 40%. The inhibition at 40 min, 10 µM against CYP3A4 [3] (substrate BOMCC), at CYP3A4 [3] (substrate BOMR) and against CYP3A4 [3] (substrate DBOMF) was 100% each time. Besides, the “metabolism-dependent inhibitory activity” value at CYP3A4 [1] (indicated by data for DBOMF) was “at least partial metabolism-dependent inhibitory activity”.

Turning to `COc1ccc(Cc2nccc3cc(OC)c(OC)cc23)cc1OC` [Papaverine], the inhibition at 20 min, 10 µM at CYP3A4 [3] (substrate BOMCC) is 34%; against CYP3A4 [3] (substrate BOMR), 69%; against CYP3A4 [3] (substrate DBOMF), 48%. Moreover, the inhibition at 40 min, 10 µM on CYP3A4 [3] (substrate BOMCC) is 99%; against CYP3A4 [3] (substrate BOMR) it was 92%; against CYP3A4 [3] (substrate DBOMF) it was 90%. Besides, the “metabolism-dependent inhibitory activity” value at CYP3A4 [1] (indicated by data for DBOMF) was “at least partial metabolism-dependent inhibitory activity”.

B1: CYP 1A2 (Homo sapiens) (protein)
chain: MALSQSVPFSATELLLASAIFCLVFWVLKGLRPRVPKGLKSPPEPWGWPLLGHVLTLGKNPHLALSRMSQRYGDVLQIRIGSTPVLVLSRLDTIRQALVRQGDDFKGRPDLYTSTLITDGQSLTFSTDSGPVWAARRRLAQNALNTFSIASDPASSSSCYLEEHVSKEAKALISRLQELMAGPGHFDPYNQVVVSVANVIGAMCFGQHFPESSDEMLSLVKNTHEFVETASSGNPLDFFPILRYLPNPALQRFKAFNQRFLWFLQKTVQEHYQDFDKNSVRDITGALFKHSKKGPRASGNLIPQEKIVNLVNDIFGAGFDTVTTAISWSLMYLVTKPEIQRKIQKELDTVIGRERRPRLSDRPQLPYLEAFILETFRHSSFLPFTIPHSTTRDTTLNGFYIPKKCCVFVNQWQVNHDPELWEDPSEFRPERFLTADGTAINKPLSEKMMLFGMGKRRCIGEVLAKWEIFLFLAILLQQLEFSVPPGVKVDLTPIYGLTMKHARCEHVQARLRFSIN
As for B1, in series [4], the Km was found to be 26.0 µM, the kcat came out at 0.733 s⁻¹ and the kcat/Km stood at 28200 M⁻¹ s⁻¹. Also, in series [5], the Michaelis-Menten constant (Km) was determined as 11.0 µM, the catalytic constant (kcat) stood at 0.35 s⁻¹ and the kcat/Km worked out at 31800 M⁻¹ s⁻¹.
